From US9439430B2, “Method of controlling resistant harmful plants” (priority 2012, dated 2016)

Assays:
[1] = tested on: KCHSC; assay: Greenhouse test, post-emergence (PO) application, foliar effect; assay type: in vivo, Kochia scoparia; details: (A) 50, (B) 20, mixture 50 + 20 g of AS/ha, 3 weeks after application
Excerpt: (§1) The 1:1 mixture of the two soil types was used specifically for cultivating small-seeded dicotyledonous weed since the standard field soil on its own tends to silt up, which may have an adverse effect on the emergence of small-seeded weeds. The resistances mentioned in the tables were confirmed beforehand in standard monitoring experiments. Nevertheless, the origins examined may have additional, hitherto unconfirmed resistances to various mechanisms of action.
(§2) The pots were then cultivated in a greenhouse (12-16 h light, temperature day 20-22° C., night 15-18° C.) until the time of application. The pots were treated at various BBCH stages of the seeds/plants on a laboratory track sprayer with spray liquors comprising the compositions according to the invention, mixtures of the prior art or the individual components. Application of the active compounds or active compound combinations and wetting agents formulated as WG, WP, EC or otherwise was carried out at the appropriate growth stages of the plants. The amount of water used for spray application was 100-600 l/ha. After the treatment, the plants were returned to the greenhouses and fertilized and watered as required. The pots were cultivated in a greenhouse (12-16 h light, temperature day 20-22° C., night 15-18° C.).
(§3) 3 weeks after the application, the foliar effect was evaluated on a scale of 0-100%:
(§4) 0%=no noticeable effect compared to untreated plants
(§5) 100%=full effect compared to untreated plants
(§6) The following abbreviations were used: • BBCH the BBCH code provides information about the morphological development stage of a plant. Officially, the abbreviation denotes the Biologische Bundesanstalt, Bundessortenamt and CHemische Industrie [Federal Biological Institute for Agriculture and Forestry, Federal Office for Crop Plant Varieties, Chemical Industry]. The range of BBCH 00-10 denotes the germination stages of the seeds until surface penetration. The range of BBCH 11-25 denotes the leaf development stages until stocking (corresponds to the number of tillers or side-shoots). • PE pre-emergence soil application; BBCH of the seeds/plants 00-10 • PO post-emergence application on the green parts of the plants; BBCH of the plants 11-25 • IU soil loamy silt—standard field soil • l/ha liters per hectare • S sensitive—the weed populations are sensitive to the active compounds tested • TSR target-site resistance. The weed populations comprise biotypes having a site-of-action-specific resistance, i.e. the binding site at the site of action is modified as a result of natural mutations in the gene sequence so that the active compounds are no longer able to bind, or bind in an unsatisfactory manner, and are therefore no longer able to act. • NTR non-target-site herbicide resistance; this is differentiated, inter alia, into EMR (Enhanced Metabolic Resistance) (the weed populations comprise biotypes having metabolic resistance, i.e. the plants are capable of metabolizing the active compounds more quickly via enzyme complexes, i.e. the active compounds are degraded more quickly in the plant), into reduced penetration into the plant, reduced translocation in the plant, accelerated excretion. […]

[2] = tested on: BIDSU; assay: as above; assay type: in vivo, Bidens subalternans; details: BIDSU sensitive, (A) 50, (B) 20, mixture 50 + 20 g of AS/ha, 3 weeks after application
Excerpt: as §1, §2, §3, §4, §5, §6

[3] = tested on: EPHHL; assay: as above; assay type: in vivo, Euphorbia heterophylla; details: (A) 50, (B) 20, mixture 50 + 20 g of AS/ha, 3 weeks after application
Excerpt: as §1, §2, §3, §4, §5, §6

[4] = tested on: ALOMY; assay: as above; assay type: in vivo, Alopecurus myosuroides; details: ALOMY sensitive, (A) 50, (B) 20, mixture 50 + 20 g of AS/ha, 3 weeks after application
Excerpt: as §1, §2, §3, §4, §5, §6

[5] = tested on: LOLSS; assay: as above; assay type: in vivo, Lolium spp.; details: (A) 50, (B) 20, mixture 50 + 20 g of AS/ha, 3 weeks after application
Excerpt: as §1, §2, §3, §4, §5, §6

[6] = tested on: EPHHL; assay: Greenhouse test, pre-emergence (PE) soil application; assay type: in vivo, Euphorbia heterophylla; design: key: % effect: 0 = no effect, 100 = full effect vs untreated
Excerpt: as §1, §2, §3, §4, §5, §6

[7] = tested on: APESV; assay: as above; assay type: in vivo, Apera spica-venti; design: key: % effect: 0 = no effect, 100 = full effect vs untreated
Excerpt: as §1, §2, §3, §4, §5, §6

[8] = tested on: ALOMY; assay: as above; assay type: in vivo, Alopecurus myosuroides
Excerpt: as §1, §2, §3, §4, §5, §6

[9] = tested on: LOLSS; assay: as above; assay type: in vivo, Lolium spp.; design: key: % effect: 0 = no effect, 100 = full effect vs untreated plants
Excerpt: as §1, §2, §3, §4, §5, §6

[10] = tested on: CHEAL; assay: as above; assay type: in vivo, Chenopodium album; design: key: % effect: 0 = no effect, 100 = full effect vs untreated
Excerpt: as §1, §2, §3, §4, §5, §6

[11] = KCHSC resistant - group B (TSR)
[12] = EPHHL resistant - group B (TSR) and G (NTR)
[13] = EPHHL resistant - group B (TSR)
[14] = LOLSS resistant - group G (NTR)
[15] = LOLSS resistant group A (TSR, NTR), B (NTR) and C2 (NA)
[16] = LOLSS resistant group A (TSR, NTR), B (TSR, NTR) and C2 (NA)
[17] = group (B) compound alone, 20 g of AS/ha

| Compound | foliar effect [1, 11] | foliar effect ([1]; KCHSC sensitive) | foliar effect [2] | foliar effect [3, 12] | foliar effect [3, 13] | foliar effect ([3]; EPHHL sensitive) | foliar effect [4] | foliar effect [5, 14] | foliar effect [5, 15] | foliar effect [5, 16] | foliar effect ([5]; LOLSS sensitive) | effect on EPHHL resistant - group B (TSR) [6, 17] | effect on EPHHL resistant - group B (TSR) and G (NTR) [6, 17] | effect on EPHHL sensitive [6, 17] | effect on APESV resistant - group B (TSR, NTR) and K1/3 (NA) [7, 17] | effect on APESV sensitive [7, 17] | effect on ALOMY sensitive [8, 17] | effect on LOLSS resistant - group G (NTR) [9, 17] | effect on LOLSS resistant group A (TSR, NTR), B (NTR) and C2 (NA) [9, 17] | effect on LOLSS resistant group A (TSR, NTR), B (TSR, NTR) and C2 (NA) [9, 17] | also measured |
| --- | --- | --- | --- | --- | --- | --- | --- | --- | --- | --- | --- | --- | --- | --- | --- | --- | --- | --- | --- | --- | --- |
| Cc1ccc2c(c1)[C@H](Nc1nc(N)nc(C(C)F)n1)[C@@H](C)C2 (stereo partly drawn) [(A), indaziflam] | 30% | 30% | 40% | 50% | 55% | 60% | 75% | 65% | 60% | 60% | 75% | – | – | – | – | – | – | – | – | – | effect on EPHHL resistant - group B (TSR) ([6]; (A) alone, 12.5 g of AS/ha): 0; effect on EPHHL resistant - group B (TSR) and G (NTR) ([6]; (A) alone, 12.5 g of AS/ha): 0; effect on EPHHL sensitive ([6]; (A) alone, 12.5 g of AS/ha): 50; effect on APESV resistant - group B (TSR, NTR) and K1/3 (NA) ([7]; (A) alone, 12.5 g of AS/ha): 70; effect on APESV sensitive ([7]; (A) alone, 12.5 g of AS/ha): 90; effect on ALOMY sensitive ([8]; (A) alone, 12.5 g of AS/ha): 85; effect on LOLSS resistant - group G (NTR) ([9]; (A) alone, 12.5 g of AS/ha): 75; effect on LOLSS resistant group A (TSR, NTR), B (NTR) and C2 (NA) ([9]; (A) alone, 12.5 g of AS/ha): 50; effect on LOLSS resistant group A (TSR, NTR), B (TSR, NTR) and C2 (NA) ([9]; (A) alone, 12.5 g of AS/ha): 50; effect on LOLSS sensitive ([9]; (A) alone, 12.5 g of AS/ha): 80; effect on CHEAL resistant - group B (TSR), C1 (NA) and G (NTR) ([10]; (A) alone, 12.5 g of AS/ha): 65; effect on CHEAL sensitive ([10]; (A) alone, 12.5 g of AS/ha): 70 |
| COc1cc(OC)nc(NC(=O)NS(=O)(=O)c2ncccc2C(F)(F)F)n1 [(B1), flazasulfuron] | 0% | 90% | 70% | 40% | 30% | 80% | 100% | 60% | 60% | 30% | 95% | 0 | 20 | 40 | 40 | 85 | 100 | 80 | 70 | 70 | effect on LOLSS sensitive [9, 17]: 70; effect on CHEAL resistant - group B (TSR), C1 (NA) and G (NTR) [10, 17]: 60; effect on CHEAL sensitive [10, 17]: 88 |
| COc1cc(OC)nc(NC(=O)NS(=O)(=O)c2cc(NC=O)ccc2C(=O)N(C)C)n1 [(B2), foramsulfuron] | 0% | 90% | 30% | 40% | 30% | 80% | 100% | 50% | 60% | 40% | 100% | 0 | 0 | 30 | 20 | 95 | 90 | 65 | 80 | 60 | effect on LOLSS sensitive [9, 17]: 78; effect on CHEAL resistant - group B (TSR), C1 (NA) and G (NTR) [10, 17]: 40; effect on CHEAL sensitive [10, 17]: 80 |
| CCS(=O)(=O)c1cccnc1S(=O)(=O)NC(=O)Nc1nc(OC)cc(OC)n1 [(B3), rimsulfuron] | 0% | 90% | 70% | 50% | 60% | 80% | 100% | 60% | 60% | 15% | 95% | 0 | 0 | 30 | 35 | 93 | 100 | 60 | 50 | 50 | effect on LOLSS sensitive [9, 17]: 70; effect on CHEAL resistant - group B (TSR), C1 (NA) and G (NTR) [10, 17]: 45; effect on CHEAL sensitive [10, 17]: 85 |
| CCOC(=O)c1ccccc1S(=O)(=O)NC(=O)Nc1nc(Cl)cc(OC)n1 [(B4), chlorimuron-ethyl] | 0% | 90% | 60% | 30% | 30% | 60% | 100% | 50% | 55% | 0% | 35% | 0 | 40 | 60 | 40 | 90 | 100 | 60 | 55 | 10 | effect on LOLSS sensitive [9, 17]: 70; effect on CHEAL resistant - group B (TSR), C1 (NA) and G (NTR) [10, 17]: 60; effect on CHEAL sensitive [10, 17]: 90 |
| COC(=O)c1csc(C)c1S(=O)(=O)NC(=O)n1nc(OC)n(C)c1=O [(B5), thiencarbazone-methyl] | 0% | 90% | 60% | 30% | 20% | 70% | 100% | 40% | 50% | 0% | 85% | 0 | 0 | 30 | 20 | 95 | 100 | 70 | 80 | 20 | effect on LOLSS sensitive [9, 17]: 75; effect on CHEAL resistant - group B (TSR), C1 (NA) and G (NTR) [10, 17]: 60; effect on CHEAL sensitive [10, 17]: 90 |
